Like-named read-outs stand apart in the source and are kept apart here.
Legend:
[1] = system: stimulated primary human T cells; test: T cell proliferation assay (rescue of proliferation in the presence of ATP); format: cell-based
Protocol: The aim of this study was to determine the potency of equilibrative nucleoside transporter 1 (ENT1) inhibitors to rescue proliferation by stimulated primary human T cells incubated in the presence of 100 uM Adenosine triphosphate (ATP), in baseline conditions (condition A) or in the presence of various proteins known to bind small molecules (condition B)
Condition B: X-VIVO15, 2% Human Serum Albumine (HSA) and 0.1% α-1-Acid Glycoprotein (AAG)
Cryopreserved purified human CD3+ T cells were thawed and washed twice with RPMI1640 medium, UltraGlutamine containing 10% hiFBS.
Cells were suspended in PBS containing 10% hiFBS. Cells were stained with CFSE by adding 2 μM solution in PBS, to get a final 1 μM CFSE solution. Cells were incubated while rotating for 5 minutes. Reaction was stopped by adding PBS with 10% FBS and cells were centrifuged for 5 minutes at 1500 rpm.
Cells were resuspended at 1.6×10^6 cells/mL, either in X-VIVO15 medium or in 4% Human Serum Albumin and 0.2% α-1-Acid Glycoprotein. 50 μL of cell suspension (8×10^4 T cells) was added to wells of sterile round-bottom 96-well plates. Cells were activated by adding 50 μL of anti-CD3 anti-CD28 coated microbeads, suspended either in XVIVO-15 medium or in 4% HSA and 0.2% α-1-Acid Glycoprotein, at a ratio of one microbead per two cells.
Serial dilutions of the ENT1 inhibitors were prepared in X-VIVO15 from 10 mM stock solutions in DMSO, and 50 μL was added to the wells.
ATP powder was diluted in X-VIVO15, and 50 μL of this compound was added to the wells to reach a final assay concentration of 100 μM. Final volume of 200 μL.
The experiments were also performed in 384 well plates—all volumes reduced by a factor of 4 (12.5 μL) with a final volume of 50 μL.
Experiments were performed in duplicate. The cells were placed in a 37° C. humidified tissue culture incubator with 5% CO2 for 72 hours for 96 well plates, 96 hours for 384 well plates After 72 or 96 hours, proliferation was measured determined by CFSE dilution via flow cytometry.

human ENT1 = biological target: T1, human ENT1 (Homo sapiens, UniProt Q99808); test: ENT1 binding assay (competition with Sahenta-DY647); details: JAR cells expressing ENT1; competition with Sahenta-DY647 (100 nM); 4° C.
T1 construct: JAR cells expressing ENT1 were bought from ATCC® (HTB-144TM); host or cells: JAR cells (human choriocarcinoma line, own knowledge)
T1 sequence (Q99808 1-456): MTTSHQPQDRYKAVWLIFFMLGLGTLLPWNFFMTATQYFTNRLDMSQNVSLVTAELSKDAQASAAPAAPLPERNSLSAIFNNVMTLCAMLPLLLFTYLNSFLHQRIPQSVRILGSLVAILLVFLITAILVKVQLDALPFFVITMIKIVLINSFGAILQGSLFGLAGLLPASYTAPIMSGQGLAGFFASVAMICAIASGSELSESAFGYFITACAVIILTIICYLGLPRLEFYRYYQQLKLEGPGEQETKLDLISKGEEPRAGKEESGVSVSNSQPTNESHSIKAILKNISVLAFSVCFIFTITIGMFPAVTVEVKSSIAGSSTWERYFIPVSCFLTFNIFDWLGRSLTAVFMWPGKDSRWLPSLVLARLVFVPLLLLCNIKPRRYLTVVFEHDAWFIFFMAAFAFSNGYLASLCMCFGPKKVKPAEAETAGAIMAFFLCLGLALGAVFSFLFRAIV
Protocol: The present assay aims at showing that the compounds of the present disclosure can bind to human ENT1. The principle of the assay is a competition between the compounds of this present disclosure and Sahenta-DY647, an ENT1 inhibitor that emits fluorescence (Ex=630 nm, Em=670 nm). By measuring the fluorescence at the end of the assay we could assess the binding potency of the compounds of the present disclosure.
JAR cells expressing ENT1 were bought from ATCC® (HTB-144TM). Cells were cultured in RPMI 1640 medium (LONZA®, #BE12-702F/U1) supplemented with 10% FBS (GIBCO®, #10270-106), 10 mM Hepes (LONZA®, #BE17-737E), 1 mM Sodium Pyruvate (LONZA®, #BE13-115E) and 2% Penicillin/Streptomycin (LONZA®, #DE17-603E) at 37° C. and 5% CO2. The assay was conducted on the following buffer: HBSS (LONZA®, #LO-527F) supplemented with 10 mM Hepes (LONZA®, #BE17-737E) and 0.1% BSA (Miltenyi®, #130-091-376) on the day of the assay.
JAR cells were resuspended in the described buffer. Compounds of the present disclosure and Sahenta-DY647 were diluted 200× in the described buffer.
A total of 50 000 cells were pre-incubated for 30 min at 4° C. with the compounds of the present disclosure before adding the corresponded IC90 of Sahenta-DY647 (100 nM) and incubate once more for 30 min at 4° C. The total volume of the reaction was 100 μL (50 μL of cells, 25 μL of the compounds of the present disclosure and 25 μL of Sahenta-DY647) in a 96 well plate, U-bottom (Greiner®, #650-180). The plates were washed 2× by centrifugation (4 min, 400 rcf at 4° C.) in the same buffer. Cells were re-suspended in 70 μL of the buffer and 50 μL was transferred to a Black 384 Optiplate (PerkinElmer®, #6007279). Fluorescence (Ex=630 nm, Em=670 nm) was acquired on a Spectramax i3x (Molecular Devices®).

[2] = Condition B: X-VIVO15, 2% Human Serum Albumine (HSA) and 0.1% α-1-Acid Glycoprotein (AAG), 100 μM ATP, read-out: (2) T Cell proliferation (Condition B) IC50
[3] = Homo sapiens, Condition A: X-VIVO15, 100 μM ATP, read-out: T Cell proliferation (Condition A) IC50

IC50 (human ENT1) | Compound | IC50 [1, 2] | IC50 [1, 3]
< 1 nM | COc1cc(C(=O)OC2CCCOc3cc(cc(OC)c3OC)COCCCN3CCCN(CC2)CC3)cc(OC)c1OC (racemic) [Compound 3] | < 1 nM | < 0.1 nM
1 to 20 nM | COc1cc(C(=O)O[C@@H]2CCCOc3cc(cc(OC)c3OC)COCCCN3CCCN(CC2)CC3)cc(OC)c1OC (single isomer, unassigned) [Compound 4] | < 1 nM | < 0.1 nM
20 to 500 nM | COc1cc(C(=O)O[C@H]2CCCOc3cc(cc(OC)c3OC)COCCCN3CCCN(CC2)CC3)cc(OC)c1OC (single isomer, unassigned) [Compound 5] |  | 
500 to 1000 nM | COc1cc(C(=O)O[C@H]2CCOc3cc(cc(OC)c3OC)C(=O)NCCCN3CCCN(CC2)CC3)cc(OC)c1OC (stereo in doubt) [Compound 38] |  | 
20 to 500 nM | COc1cc2cc(c1OC)OCCCC(O/N=C/c1ccccc1)CCN1CCCN(CCCOC2)CC1 (stereo not drawn) [Compound 1] |  | 
1 to 20 nM | COc1cc2cc(c1OC)OCCCC(OC(=O)CCC(=O)N1CCOCC1)CCN1CCCN(CCCOC2)CC1 (stereo not drawn) [Compound 6] | > 500 nM | < 1 nM
1 to 20 nM | COc1cc2cc(c1OC)OCCCC(OC(=O)c1cnnn1C)CCN1CCCN(CCCOC2=O)CC1 (stereo not drawn) [Compound 7] |  | 
1 to 20 nM | COc1cc2cc(c1OC)OCCCC(OC(=O)c1cn(C)nn1)CCN1CCCN(CCCOC2=O)CC1 (stereo not drawn) [Compound 8] |  | 
1 to 20 nM | COc1cc2cc(c1OC)OCCCC(OC(=O)c1cnn(C)c1)CCN1CCCN(CCCOC2=O)CC1 (stereo not drawn) [Compound 9] | 1 to 20 nM | < 0.1 nM
1 to 20 nM | COc1cc2cc(c1OC)OCCCC(OC(=O)c1ccnn1C)CCN1CCCN(CCCOC2=O)CC1 (stereo not drawn) [Compound 10] | 20 to 500 nM | < 0.1 nM
1 to 20 nM | COc1cc2cc(c1OC)OCCCC(OC(=O)c1ccn(C)n1)CCN1CCCN(CCCOC2=O)CC1 (stereo not drawn) [Compound 11] | > 500 nM | < 1 nM
1 to 20 nM | COc1cc2cc(c1OC)OCCCC(OC(=O)c1cc(C)nn1C)CCN1CCCN(CCCOC2=O)CC1 (stereo not drawn) [Compound 12] | 1 to 20 nM | < 1 nM
1 to 20 nM | COc1ccc(C(=O)OC2CCCOc3cc(cc(OC)c3OC)C(=O)OCCCN3CCCN(CC2)CC3)cc1 (stereo not drawn) [Compound 13] |  | 
1 to 20 nM | COc1cccc(C(=O)OC2CCCOc3cc(cc(OC)c3OC)C(=O)OCCCN3CCCN(CC2)CC3)c1 (stereo not drawn) [Compound 14] |  | 
1 to 20 nM | COc1cc(OC)cc(C(=O)OC2CCCOc3cc(cc(OC)c3OC)C(=O)OCCCN3CCCN(CC2)CC3)c1 (stereo not drawn) [Compound 15] | 1 to 20 nM | < 1 nM
1 to 20 nM | COc1ccc(C(=O)OC2CCCOc3cc(cc(OC)c3OC)C(=O)OCCCN3CCCN(CC2)CC3)cc1OC (stereo not drawn) [Compound 16] | 1 to 20 nM | < 0.1 nM
1 to 20 nM | COc1cc(C(=O)OC2CCCOc3cc(cc(OC)c3OC)C(=O)NCCN3CCCN(CC2)CC3)cc(OC)c1OC (stereo not drawn) [Compound 19] | 20 to 500 nM | < 1 nM
20 to 500 nM | COc1cc2cc(c1OC)OCCCC(OC(=O)CCC(=O)N1CCOCC1)CCN1CCCN(CCCNC2=O)CC1 (stereo not drawn) [Compound 20] | > 500 nM | 1 to 20 nM

IC50 (human ENT1) | Compound | IC50 [1, 2] | IC50 [1, 3]
1 to 20 nM | COc1cc(C(=O)OC2CCCOc3cc(cc(OC)c3OC)C(=O)NCCC(=O)N3CCCN(CC2)CC3)cc(OC)c1OC (stereo not drawn) [Compound 21] | 1 to 20 nM | < 0.1 nM
20 to 500 nM | COc1cc2cc(c1OC)OCCCC(Oc1ncccn1)CCN1CCCN(CCCOC2=O)CC1 (stereo not drawn) [Compound 22] |  | 
1 to 20 nM | COc1cc2cc(c1OC)OCCCC(Oc1nccc3ccccc13)CCN1CCCN(CCCOC2=O)CC1 (stereo not drawn) [Compound 23] | 20 to 500 nM | 1 to 20 nM
1 to 20 nM | COc1cc2cc(c1OC)OCCCC(Oc1nncc3ccccc13)CCN1CCCN(CCCOC2=O)CC1 (stereo not drawn) [Compound 24] | 20 to 500 nM | < 0.1 nM
500 to 1000 nM | COc1cc2cc(c1OC)OCCCC(Oc1ccn(C)n1)CCN1CCCN(CCCOC2=O)CC1 (stereo not drawn) [Compound 25] |  | 
1 to 20 nM | COc1cc2cc(c1OC)OCCCC(OC(=O)N1CCOCC1)CCN1CCCN(CCCOC2=O)CC1 (stereo not drawn) [Compound 26] |  | 
1 to 20 nM | COc1cc2cc(c1OC)OCCCC(OC(=O)N1CCCCC1)CCN1CCCN(CCCOC2=O)CC1 (stereo not drawn) [Compound 27] |  | 
1 to 20 nM | COc1cc2cc(c1OC)OCCCC(n1ncc(-c3ccccc3)n1)CCN1CCCN(CCCOC2=O)CC1 (stereo not drawn) [Compound 28] | 20 to 500 nM | < 1 nM
20 to 500 nM | COc1cc(C(=O)OC2CCCOc3cc(cc(OC)c3OC)C(=O)NCCC(=O)N3CCN(CC2)CC3)cc(OC)c1OC (stereo not drawn) [Compound 31] |  | 
500 to 1000 nM | COc1cc2cc(c1OC)OCCCCCCN1CCCN(CCCOC2=O)CC1 [Compound 32] |  | 
500 to 1000 nM | Cn1nnc2cc(C(=O)OC3CCCOc4cc(cc(Cl)c4Cl)C(=O)NCCCN4CCCN(CC3)CC4)ccc21 (stereo not drawn) [Compound 34] |  | 
500 to 1000 nM | COc1cc2cc(c1OC)OCCCC(OCc1ccccc1)CCN1CCCN(CCCOC2=O)CC1 (stereo not drawn) [Compound 35] |  | 
20 to 500 nM | COc1cc(C(=O)OC2CCCOc3cccc(c3)-c3cn(nn3)CCCN3CCCN(CC2)CC3)cc(OC)c1OC (stereo not drawn) [Compound 36] |  | 
20 to 500 nM | COc1cc(C(=O)O[C@@H]2CCOc3cc(cc(OC)c3OC)C(=O)NCCCN3CCCN(CC2)CC3)cc(OC)c1OC [Compound 39] |  | 
1 to 20 nM | COc1cc(C(=O)OC2CCCOc3cc(cc(OC)c3OC)CCCCCN3CCCN(CC2)CC3)cc(OC)c1OC (stereo not drawn) [Compound 45] |  | 
20 to 500 nM | COc1cc(C(=O)OC2CCCOc3cc(cc(OC)c3OC)C#CCCS(=O)(=O)N3CCCN(CC2)CC3)cc(OC)c1OC (stereo not drawn) [Compound 46] |  | 
 | COc1cc(C(=O)OCCCN2CCCN(CCCOC(=O)c3cc(OC)c(OC)c(OC)c3)CC2)cc(OC)c1OC [Dilazep, dilazep, reference compound] | 20 to 500 nM | 1 to 20 nM

Compound | IC50 (human ENT1) | IC50 [1, 2] | IC50 [1, 3]
COc1cc2cc(c1OC)OCCCC(OC(=O)c1ccccc1)CCN1CCCN(CCCOC2)CC1 (stereo not drawn) [Compound 2] | 1 to 20 nM | > 500 nM | 1 to 20 nM
[2H]C([2H])([2H])Oc1cc(C(=O)O[C@@H]2CCCOc3cc(cc(OC)c3OC)C(=O)NCCCN3CCCN(CC2)CC3)cc(OC([2H])([2H])[2H])c1OC([2H])([2H])[2H] [Compound 17] | 1 to 20 nM | 1 to 20 nM | < 0.1 nM

Reference: patent US20240368183A1, “Macrocyclic Compounds Having ENT1 Inhibiting Activity” (iTeos Belgium SA, priority 2021, published 2024)
